Measured values reported in patent US20220125837A1, “METHODS FOR CONTROLLED ELIMINATION OF THERAPEUTIC CELLS” (Bellicum Pharmaceuticals, Inc., priority 2014, published 2022).
Like-named read-outs stand apart in the source and are kept apart here. Where a SMILES comes first, the peptide text is derived from it. The star is where a group is joined. Cbz = O=C(OCc1ccccc1)*; CH2F = FC*

How the values were obtained:
[1] = target: FRB-PLF (Homo sapiens, UniProt P42345+P62942, K2095P/T2098L/W2101F); details: cited from earlier work
Sequence of FRB-PLF (P42345 2012-2144 K2095P/T2098L/W2101F): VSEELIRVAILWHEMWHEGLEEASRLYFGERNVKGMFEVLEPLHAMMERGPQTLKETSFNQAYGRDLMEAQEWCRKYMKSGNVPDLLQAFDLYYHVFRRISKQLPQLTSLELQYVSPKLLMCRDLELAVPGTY
Sequence of FRB-PLF (P62942 2-108): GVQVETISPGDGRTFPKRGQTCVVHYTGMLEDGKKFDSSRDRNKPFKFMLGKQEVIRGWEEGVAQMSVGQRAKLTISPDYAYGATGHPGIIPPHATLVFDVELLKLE

[2] = target: wt FRB (K2095 T2098 W2101) (Homo sapiens, UniProt P42345+P62942); details: cited from earlier work
Sequence of wt FRB (K2095 T2098 W2101) (P62942 2-108): as above
Sequence of wt FRB (K2095 T2098 W2101) (P42345 2012-2144): as the sequence (P42345 2012-2144 K2095P/T2098L/W2101F) above, with P84K, L87T, F90W counted along it

[3] = test system: F-Casp9M.I.GFPhigh-transduced T cells; experiment: Annexin V/7-AAD staining of iCasp9M GFPhigh T cells after CID; assay type: cell-based, human; details: 100 μM for 1 hour prior to adding CID
Description: CID (AP20187; ARIAD Pharmaceuticals) at indicated concentrations was added to transfected 293T cells or transduced CTLs. Adherent and nonadherent cells were harvested and washed with annexin binding buffer (BD Pharmingen, San Jose, Calif.). Cells were stained with annexin-V and 7-amino-actinomycin D (7-AAD) for 15 minutes according to the manufacturer's instructions (BD Pharmingen). Within 1 hour after staining, cells were analyzed by flow cytometry using CellQuest software (Becton Dickinson).
A representative example of 3 separate experiments is shown.
For clinical applications therefore, versions of the expression constructs with selectable markers that allow selection for high copy number, high levels of expression, or both high copy number and high levels of expression may be desirable. […] The dose response remained unchanged for at least 4 weeks after transduction.

[4] = target: FRB-KTF (Homo sapiens, UniProt P42345+P62942, W2101F); details: cited from earlier work
Sequence of FRB-KTF (P42345 2012-2144 W2101F): as the sequence (P42345 2012-2144 K2095P/T2098L/W2101F) above, with P84K, L87T counted along it
Sequence of FRB-KTF (P62942 2-108): as the sequence (P62942 2-108) above

[5] = test system: human CD3+CD19+ T cells; experiment: AP1903 dose-dependent elimination in vivo of iCasp9-transduced T cells; set-up: species or system immune deficient mice (NSG); details: mouse
Description: The Caspase-9 polypeptide has a dose-response curve in vivo, which could be used to eliminate a variable fraction of T cells expressing the Caspase-9 polypeptide.
T cells were transduced with SFG-iCasp9-D330E-2A-ΔCD19 retrovirus and injected i.v. into immune deficient mice (NSG). […] After an additional 24 hours, mice were sacrificed and lymphocytes from the spleen (A) were isolated and analyzed by flow cytometry for the frequency of human CD3+CD19+ T cells.

[6] = test system: cells; experiment: AP1903 needed in vitro for effective signaling of cells; assay type: cell-based
Description: This equates to 16-160 μg/L or ˜0.016-1.6 mg/kg (1.6-160 μg/kg).

[7] = test system: 293 cells; experiment: SRα-SEAP assay in 293 cells with FRBl2-tagged CAR and iCaspase-9: rapamycin or rimiducid; assay type: cell-based, human; details: overnight
Description: Two tandem FRB, domains were fused to either either a 1st generation Her2-CAR or to a 1st generation CD19-CAR co-expressing inducibleiCaspase-9. 293 cells were transiently transfected with a constitutive reporter plasmid, SRα-SEAP, along with normalized levels of expression plasmids encoding Her2-CAR-FRBl2, iCaspase-9, Her2-CAR-FRBl2+iCasp9, iC9-CAR(19).FRBl2 (coexpressing both CD19-CAR-FRBl2 and iCaspase9), or control vector. […] After overnight incubation with drugs, SEAP activity was determined. […] This dose-dependent decrease required the presence of both the FRB-tagged CAR and the FKBP12-tagged Caspase-9. […] Moreover, on- or off-target-mediated CAR clustering should increase the sensitivity of killing primarily at the site of scFv engagement.
24 hours following transfection (4.1), 293T cells are split to 96-well plates and incubated with dilutions of dimerizing drugs. Briefly, 100 μL media is added to each well of a 96-well flat-bottom plate. Drugs are diluted in tubes to a concentration 4× the top concentration in the gradient to be place on the plate. […]
24 hours after drug stimulation, 96-well plates are wrapped to prevent evaporation and incubated at 65° C. for 2 hours to inactivate endogenous and serum phosphatases while the heat-stable SeAP reporter remains (3, 12, 14). […] Phosphatase activity is measured by fluorescence with excitation at 355 nm and emission at 460 nm. […]

[8] = cited from earlier work
[9] = test system: CD3+ΔCD19+ cells; experiment: CASPALLO phase I clinical trial: AP1903 in patients with GvHD after iCasp9 T cells; assay type: in vivo, human
Description: Prior to administration, the calculated dose was diluted to 100 mL in 0.9% normal saline for infusion.

[10] = test system: PG13 packaging cells; assay type: cell-based
[11] = test system: HEK293T/16 cells; experiment: Secreted alkaline phosphatase (SEAP) surrogate killing assay of iCasp9 mutants; assay type: cell-based, human; details: SEAP assay without AP1903; relative to wild type Caspase-9
Description: Early passage HEK293T/16 cells (ATCC, Manassas, Va.) were maintained in IMDM, GlutaMAX™ (Life Technologies, Carlsbad, Calif.) supplemented with 10% FBS, 100 U/mL penicillin, and 100 U/mL streptomycin until transfection in a humidified, 37° C., 5% CO2/95% air atmosphere. Cells in logarithmic-phase growth were transiently transfected with 800 ng to 2 μg of expression plasmid encoding iCasp9 mutants and 500 ng of an expression plasmid encoding SRα promoter driven SEAP per million cells in 15-mL conical tubes. […] GeneJammer® Transfection Reagent at a ratio of 3 μl per ug of plasmid DNA was used to transiently transfect HEK293T/16 cells in the absence of antibiotics. 100 μl or 2 mL of the transfection mixture was added to each well in 96-well or 6-well plate, respectively.
Briefly, after 65° C. heat denaturation for 45 minutes to reduce background caused by endogenous (and serum-derived) alkaline phosphatases that are sensitive to heat, 5 μl of supernatants was added to 95 μl of PBS and added to 100 μl of substrate buffer, containing 1 μl of 100 mM 4-methylumbelliferyl phosphate (4-MUP; Sigma, St. Louis, Mo.) re-suspended in 2 M diethanolamine. Hydrolysis of 4-MUP by SEAP produces a fluorescent substrate with excitation/emission (355/460 nm), which can be easily measured. […] 1000-ul of the mixture was seeded onto each well of a 96-well plate. […] For the assay, 4-methylumbelliferyl phosphate substrate was hydrolyzed by SEAP to 4-methylumbelliferon, a metabolite that can be excited with 364 nm and detected with an emission filter of 448 nm. Since SEAP is used as a marker for cell viability, reduced SEAP reading corresponds with increased iCaspase-9 activities.

[12] = test system: primary T cells; experiment: AP1903-dependent cytotoxicity in primary T cells transduced with caspase variants; assay type: cell-based, human; details: AP1903 at Day 0 and day 4
Description: The effects of various caspase polypeptides at mostly single copy in primary T cells was assayed. This may reflect more accurately how these suicide genes will be used therapeutically.
Primary T cells from healthy donors (n=6) were transduced with retrovirus encoding mutant or wild-type iCasp9 or iCasp9-D330A, and the ΔCD19 cell surface marker. Following transduction, iCasp9-transduced T cells were purified using CD19-microbeads and a magnetic column.

CO[C@@H]1C[C@H](C[C@@H](C)[C@@H]2CC(=O)[C@H](C)/C=C(\C)[C@@H](O)[C@@H](OC)C(=O)[C@H](C)C[C@H](C)/C=C/C=C/C=C(\C)[C@H](OC(C)C)C[C@@H]3CC[C@@H](C)[C@@](O)(O3)C(=O)C(=O)N3CCCC[C@H]3C(=O)O2)CC[C@H]1O [R-Isopropoxyrapamycin]
EC50 [1]: ~8.5 nM
EC50 [2]: ~300 nM

COC(=O)C[C@H](NC(=O)[C@H](C)NC(=O)[C@@H](NC(=O)OCc1ccccc1)C(C)C)C(=O)CF [zVAD-fmk] (Cbz-Val-Ala-Asp(OMe)-CH2F)
effect on CID-induced apoptosis [3]: inhibited

S-Butanesulfonamidorap
EC50 [4]: > 200 nM

CC[C@H](C(=O)N1CCCC[C@H]1C(=O)O[C@H](CCc1ccc(OC)c(OC)c1)c1cccc(OCC(=O)NCCNC(=O)COc2cccc([C@@H](CCc3ccc(OC)c(OC)c3)OC(=O)[C@@H]3CCCCN3C(=O)[C@@H](CC)c3cc(OC)c(OC)c(OC)c3)c2)c1)c1cc(OC)c(OC)c(OC)c1 (relative stereo) [AP1903, 2-Piperidinecarboxylic acid, 1-[(2S)-1-oxo-2-(3,4,5-trimethoxyphenyl)butyl]-, 1,2-ethanediylbis[imino(2-oxo-2,1-ethanediyl)oxy-3,1-phenylene[(1R)-3-(3,4-dimethoxyphenyl)propylidene]] ester, [2S-[1(R*),2R*[S*[S*[1(R*),2R*]]]]]-(9Cl)]
dose sufficient to eliminate most modified T cells in vivo [5]: 0.5 mg/kg
amount needed in vitro for effective signaling of cells [6]: 10 to 100 nM
SEAP activity, % of normal levels ([7]; at much lower levels of drug): about 20%
plasma level as % of maximal concentration ([8]; 2 hours post-dose): ~7%
plasma level as % of maximal concentration ([8]; 10 hours post-dose): ~1%
well-tolerated doses ([8]; Phase I study): up to 1 mg/kg
ablation of CD3+ΔCD19+ cells ([9]; patients with grade I/II aGVHD, 0.4 mg/kg 2 h infusion, within 30 minutes of infusion): > 90%
time to resolution of skin and liver aGvHD ([9]; two patients): ≤ 24 h
further change of CD3+ΔCD19+ cells ([9]; within 24 hours): further log reduction

CO[C@H]1C[C@@H]2CC[C@@H](C)[C@@](O)(O2)C(=O)C(=O)N2CCCC[C@H]2C(=O)O[C@H]([C@H](C)C[C@@H]2CC[C@@H](O)[C@H](OC)C2)CC(=O)[C@H](C)/C=C(\C)[C@@H](O)[C@@H](OC)C(=O)[C@H](C)C[C@H](C)/C=C/C=C/C=C/1C [Rapamycin]
maximal decrease of SEAP activity ([7]; FRB-tagged CAR plus FKBP12-tagged Caspase-9): ~50%

B1: D330E: chimeric modified Caspase-9 polypeptide (protein)
chain: VDGFGDVGALESLRGNADLAYILSMEPCGHCLIINNVNFCRESGLRTRTGSNIDCEKLRRRFSSLHFMVEVKGDLTAKKMVLALLELARQDHGALDCCVVVILSHGCQASHLQFPGAVYGTDGCPVSVEKIVNIFNGTSCPSLGGKPKLFFIQACGGEQKDHGFEVASTSPEDESPGSNPEPDATPFQEGLRTFDQLEAISSLPTPSDIFVSYSTFPGFVSWRDPKSGSWYVETLDDIFEQWAHSEDLQSLLLRVANAVSVKGIYKQMPGCFNFLRKKLFFKTSASRA
CD19 mean fluorescence intensity of transduced PG13 cells, in words [10]: enhanced CD19 mean fluorescence intensity (MFI)
viral titers, in words ([10]; upon HAT media treatment, HT1080 cells): higher viral titers
basal activity, in words [11]: less basal activity than wild type Caspase-9

B2: D330S: chimeric modified Caspase-9 polypeptide (protein)
chain: VDGFGDVGALESLRGNADLAYILSMEPCGHCLIINNVNFCRESGLRTRTGSNIDCEKLRRRFSSLHFMVEVKGDLTAKKMVLALLELARQDHGALDCCVVVILSHGCQASHLQFPGAVYGTDGCPVSVEKIVNIFNGTSCPSLGGKPKLFFIQACGGEQKDHGFEVASTSPEDESPGSNPEPDATPFQEGLRTFDQLSAISSLPTPSDIFVSYSTFPGFVSWRDPKSGSWYVETLDDIFEQWAHSEDLQSLLLRVANAVSVKGIYKQMPGCFNFLRKKLFFKTSASRA
basal activity, in words [11]: less basal activity than wild type Caspase-9

B3: F404Y: chimeric modified Caspase-9 polypeptide (protein)
chain: VDGFGDVGALESLRGNADLAYILSMEPCGHCLIINNVNFCRESGLRTRTGSNIDCEKLRRRFSSLHFMVEVKGDLTAKKMVLALLELARQDHGALDCCVVVILSHGCQASHLQFPGAVYGTDGCPVSVEKIVNIFNGTSCPSLGGKPKLFFIQACGGEQKDHGFEVASTSPEDESPGSNPEPDATPFQEGLRTFDQLDAISSLPTPSDIFVSYSTFPGFVSWRDPKSGSWYVETLDDIFEQWAHSEDLQSLLLRVANAVSVKGIYKQMPGCYNFLRKKLFFKTSASRA
killing of target T cells within 10 days, in words [12]: indistinguishable from wild type Caspase-9 polypeptide or D330A
